Results on one compound are retold here after US7897587B2, “Topical dermatological formulations and use thereof” (Nycomed US Inc., priority 2004, dated 2011).

The data set can be described thus: Solubility of fluticasone propionate in propylene glycol, propylene carbonate and mixtures thereof. Type of data set: physicochemical. To be noted: 25° C. The procedure:
In the drawing FIGURE this solubility data obtained at 25° C. is plotted as the dark line and the idealized (theoretical) solubility is plotted as the light line. In “ideal” solutions, the effect of each component is additive in a linear fashion. If solvent A has a property with a value of 50 and solvent B a value of 100 for the same property, an equal blend of A and B would be expected to give a value of 75 for that property. […] The lightly colored line represents “ideal” linear behavior. Since propylene glycol can solubilize about 10 times more drug than propylene carbonate, the “ideal” line slopes down strongly as we move from pure propylene glycol to pure propylene carbonate. […] Two important observations can be made.

Turning to `CCC(=O)O[C@]1(C(=O)SCF)[C@H](C)C[C@H]2[C@@H]3C[C@H](F)C4=CC(=O)C=C[C@]4(C)[C@@]3(F)[C@@H](O)C[C@@]21C` [Fluticasone propionate, 6α,9α-difluoro-17α(1-oxopropoxy)-11β-hydroxy-16α-methyl-3-oxo-androsta-1,4-diene-17β-carbothioic acid S-fluoromethyl ester], the Fluticasone propionate solubility (% propylene glycol/% propylene carbonate 0/100) came to 1.17 % w/w; the Fluticasone propionate solubility (% propylene glycol/% propylene carbonate 12.5/87.5) came to 1.72 % w/w; the Fluticasone propionate solubility (% propylene glycol/% propylene carbonate 25/75) turned out to be 1.56 % w/w; the Fluticasone propionate solubility (% propylene glycol/% propylene carbonate 50/50) is recorded as 1.09 % w/w; the Fluticasone propionate solubility (% propylene glycol/% propylene carbonate 75/25) came out at 0.48 % w/w; the Fluticasone propionate solubility (% propylene glycol/% propylene carbonate 100/0) stood at 0.08 % w/w. Also, for the setting “all propylene glycol/propylene carbonate mixtures”, the “Measured solubility compared with ideal (linear, theoretical) solubility” value is on record as “the measured solubility exceeds the ideal solubility”. For the same compound, the “Measured solubility in blends compared with solubility in single solvent” value (blends containing about 99 to 45% propylene carbonate) was “the measured solubility exceeds the solubility in propylene glycol”. Moreover, the “Drug solubilized by propylene glycol relative to propylene carbonate” value (pure solvents) is on record as “about 10 times”.
